ChEMBL document CHEMBL1201862, “PubChem BioAssay data set” (2004)
Several values for one entry are separate records, joined by “and”; a condition that tells them apart may be missing. Equal entries are not always repeated.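 How tested: cells in 96-well plates exposed to compound for 48 hours at five concentrations. The concentration for 50% growth inhibition is given as GI50.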 Activity calls are given as the source filed them. No stated cut-off is given here; in the data, active = GI50 up to about 1.1 µM and inactive = higher.

What was measured:
Assay in all cases: DTP human tumour cell line panel, 48 h
[1] = system: KM12
[2] = system: A549
[3] = system: RPMI-8226
[4] = system: SK-MEL-2
[5] = system: CCRF-CEM
[6] = system: PC-3
[7] = system: COLO 205
[8] = system: RXF 393
[9] = system: DU-145
[10] = system: LOX IMVI
[11] = system: MDA-MB-231
[12] = system: HL-60
[13] = system: SW-620
[14] = system: U-251
[15] = system: MDA-N
[16] = system: SNB-19
[17] = system: OVCAR-8
[18] = system: MOLT-4
[19] = system: OVCAR-4
[20] = system: T47D
[21] = system: UACC-257
[22] = system: OVCAR-5
[23] = system: ACHN
[24] = system: IGROV-1
[25] = system: HOP-92
[26] = system: CAKI-1
[27] = system: Malme-3M
[28] = system: TK-10
[29] = system: SK-MEL-5
[30] = system: SF-268
[31] = system: SN12C
[32] = system: SK-MEL-28
[33] = system: SR
[34] = system: SNB-75
[35] = system: 786-0
[36] = system: MDA-MB-435
[37] = system: EKVX
[38] = system: A498
[39] = system: OVCAR-3
[40] = system: MCF7
[41] = system: NCI-H522
[42] = system: M14
[43] = system: HCT-116
[44] = system: HOP-62
[45] = system: SF-295
[46] = system: UO-31
[47] = system: K562
[48] = system: NCI-H226
[49] = system: HT-29
[50] = system: Hs-578T
[51] = system: SK-OV-3
[52] = system: SF-539
[53] = system: NCI/ADR-RES
[54] = system: NCI-H23
[55] = system: HCC 2998
[56] = system: HCT-15
[57] = system: NCI-H460

For `COc1ccc2c(O)c1-c1c(OC)ccc(c1O)SSc1ccc(OC)c(c1O)-c1c(OC)ccc(c1O)SS2`, the GI50 [1] was 37.2 µM (inactive), the GI50 [2] was 24.5 µM (inactive) and the GI50 [3] was 1.99 µM (inactive). For the same compound, the GI50 [4] was > 100 µM (inactive), the GI50 [5] was 4.56 µM (inactive) and the GI50 [6] was 5.42 µM (inactive). For the same compound, the GI50 [7] was 19.9 µM (inactive), the GI50 [8] was 16.1 µM (inactive) and the GI50 [9] was 29 µM (inactive). The GI50 [10] was 26.7 µM (inactive), the GI50 [11] was 44.3 µM (inactive) and the GI50 [12] was 8.15 µM (inactive). For the same compound, the GI50 [13] was 16 µM (inactive), the GI50 [14] was 19.2 µM (inactive) and the GI50 [15] was > 100 µM (inactive). For the same compound, the GI50 [16] was 60.4 µM (inactive), the GI50 [17] was 32.9 µM (inactive) and the GI50 [18] was > 100 µM (inactive). For the same compound, the GI50 [19] was 12.1 µM (inactive), the GI50 [20] was 20.8 µM (inactive) and the GI50 [21] was > 100 µM (inactive). For the same compound, the GI50 [22] was 66.4 µM (inactive), the GI50 [23] was 5.32 µM (inactive) and the GI50 [24] was 23 µM (inactive). For the same compound, the GI50 [25] was 23 µM (inactive), the GI50 [26] was > 100 µM (inactive) and the GI50 [27] was 51.2 µM (inactive). For the same compound, the GI50 [28] was 65.8 µM (inactive), the GI50 [29] was 30 µM (inactive) and the GI50 [30] was 27.4 µM (inactive). The GI50 [31] was > 100 µM (inactive), the GI50 [32] was 34.4 µM (inactive) and the GI50 [33] was 4.27 µM (inactive). The GI50 [34] was 36.7 µM (inactive), the GI50 [35] was 40.6 µM (inactive) and the GI50 [36] was > 100 µM (inactive). For the same compound, the GI50 [37] was 7.87 µM (inactive), the GI50 [38] was > 100 µM (inactive) and the GI50 [39] was 20.6 µM (inactive). The GI50 [40] was > 100 µM (inactive), the GI50 [41] was 3.58 µM (inactive) and the GI50 [42] was > 100 µM (inactive). For the same compound, the GI50 [43] was 48.2 µM (inactive), the GI50 [44] was > 100 µM (inactive) and the GI50 [45] was > 100 µM (inactive). For the same compound, the GI50 [46] was 4.21 µM (inactive), the GI50 [47] was 5.2 µM (inactive) and the GI50 [48] was 29.9 µM (inactive). For the same compound, the GI50 [49] was > 100 µM (inactive), the GI50 [50] was 54.8 µM (inactive) and the GI50 [51] was > 100 µM (inactive). For the same compound, the GI50 [52] was 4.45 µM (inactive).
For `Cc1nc(=O)n2c(c1C(=O)Nc1ccc(Cl)cc1)NCC2`, the GI50 [25] was 47.8 µM (inactive).
For `COc1ccc(COC(=O)NCC(=O)NC(C)C(=O)NC(Cc2ccccc2)C(=O)OCc2ccccc2)cc1` (stereo unspecified), the GI50 [3] was 29.6 µM (inactive) and 26.7 µM (inactive), the GI50 [5] was 21.5 µM (inactive) and 13.6 µM (inactive) and the GI50 [7] was 24.4 µM (inactive) and 24.2 µM (inactive). For the same compound, the GI50 [8] was 16.1 µM (inactive), the GI50 [10] was 28.1 µM (inactive) and 19.4 µM (inactive) and the GI50 [11] was 20 µM (inactive) and 25.6 µM (inactive). The GI50 [13] was 33.3 µM (inactive) and 45.8 µM (inactive), the GI50 [14] was 22.2 µM (inactive) and 21.9 µM (inactive) and the GI50 [15] was 25.9 µM (inactive) and 27.4 µM (inactive). The GI50 [17] was > 100 µM (inactive) and 74.5 µM (inactive), the GI50 [19] was 34 µM (inactive) and 22.3 µM (inactive) and the GI50 [20] was 19.8 µM (inactive) and 30.1 µM (inactive). For the same compound, the GI50 [23] was 21.3 µM (inactive) and 19.8 µM (inactive), the GI50 [24] was 45.2 µM (inactive) and 29.8 µM (inactive) and the GI50 [26] was 20 µM (inactive) and 21.1 µM (inactive). The GI50 [53] was > 100 µM (inactive) and 67.1 µM (inactive), the GI50 [27] was 19.2 µM (inactive) and 36.6 µM (inactive) and the GI50 [30] was 24.3 µM (inactive) and 35 µM (inactive). The GI50 [31] was 24.2 µM (inactive) and 31.5 µM (inactive), the GI50 [32] was 18.9 µM (inactive) and 19.4 µM (inactive) and the GI50 [33] was 28.3 µM (inactive) and 25 µM (inactive). For the same compound, the GI50 [35] was 20 µM (inactive) and 29.2 µM (inactive), the GI50 [36] was 27.6 µM (inactive) and 22.1 µM (inactive) and the GI50 [38] was 38.8 µM (inactive) and 22.5 µM (inactive). The GI50 [39] was 22.1 µM (inactive) and 24.4 µM (inactive), the GI50 [54] was 37.9 µM (inactive) and the GI50 [40] was 17 µM (inactive). The GI50 [41] was 12.2 µM (inactive) and 16.5 µM (inactive), the GI50 [43] was 33.5 µM (inactive) and 42.5 µM (inactive) and the GI50 [44] was 24.7 µM (inactive) and 22.3 µM (inactive). The GI50 [45] was 21.1 µM (inactive) and 22.3 µM (inactive), the GI50 [55] was 20.9 µM (inactive) and 14.8 µM (inactive) and the GI50 [47] was 26.5 µM (inactive) and 38.7 µM (inactive). For the same compound, the GI50 [56] was > 100 µM and 61.2 µM, the GI50 [48] was 27.3 µM (inactive) and 34.9 µM (inactive) and the GI50 [49] was 26.4 µM (inactive) and 18.4 µM (inactive). The GI50 [57] was 10.8 µM (inactive) and the GI50 [50] was 23.9 µM (inactive) and 25.5 µM (inactive).
